Data as given in a melting point compilation (Tetko et al.; mined from patent text by program, amines drawn as free bases though some values may be those of a salt).

First: Cc1c(-c2ccccc2)c(N2CC[C@@H](N(C)C)C2)c2oc(C(=O)N(C)C)nc2c1C#N
Second: COc1cc2c(cc1OC)-c1c(C#N)sc(=NC(=O)c3ccccc3)n1CC2
The melting point of the first is lower: 67 to 70 °C for the first, 274 to 276 °C for the second.

Compared with `COc1cc2c(cc1[N+](=O)[O-])C(C)CC1c3ccccc3CC1(C)C2` (centres undefined), `CC1CC(n2cncc2C(=O)O)c2ccccc21` (centres undefined) is higher in melting point: 90 to 94 °C for the first, 209 °C for the second.

First: N[C@H]1CC[C@@H](C(=O)N2CCC(c3[nH]nc4c3C(=O)c3c(NC(=O)NN5CCOCC5)cccc3-4)CC2)CC1
Second: CCOC(=O)c1ccc(-c2[nH]nc3c2C(=O)c2c(NC(=O)NN4CCN(C)CC4)cccc2-3)s1
The melting point of the first is lower: 202 to 204 °C for the first, 249 °C for the second.

First: Cn1nc(Cl)c(C(=O)OC2COC2)c1S(N)(=O)=O
Second: CC(C)C(=O)O[C@H]1[C@H](C)OC(=O)[C@@H](NC(=O)OC(C)(C)C)COC(=O)[C@@H]1CSc1ccccn1
The melting point of the first is higher: 145 to 147 °C for the first, 54 to 58 °C for the second.

Compared with `Cn1cc(-c2ncc(-c3ccc4cc(OCC(=O)O)ccc4c3)o2)c2ccccc21`, `CCc1nc2c(N)nc3ccc(OCc4ccccc4)cc3c2n1CCCCNS(C)(=O)=O` is lower in melting point: 269 to 272 °C for the first, 186 to 191 °C for the second.

First: C[C@H]1CN(c2nc(-c3ccccc3)nc3ccccc23)[C@@H](C)CN1c1ccccn1 (relative stereo)
Second: CC(C(=O)N1c2ccccc2N(C)C(=O)c2cnc(-c3ccccc3)nc21)N1CCCCC1 (centres undefined)
The melting point of the first is lower: 68 to 70 °C for the first, 214 to 215 °C for the second.

Compared with `COC(=O)C1Cc2cc(OC)ccc2N1` (racemic), `COc1cc(C(=O)O)ccc1NC(=O)OC(C)(C)C` is higher in melting point: 59 to 61 °C for the first, 176 to 178 °C for the second.

`CCCCC(=O)Nc1ccc(Cl)c(-n2nc(CCCC)c(Cc3ccc(-c4ccccc4S(=O)(=O)NC(=O)c4ccccc4Cl)cc3F)c2C#N)c1` and `N#Cc1ccc(N(Cc2ccc(OS(N)(=O)=O)c(F)c2)n2cnnc2)cc1-c1ccccc1` cannot be ordered by melting point: > 95 °C for the first, 198 to 200 °C for the second.

First: CCCc1cc(NC(=O)c2c(C)nn(C)c2C)c(C)cc1C(OC)(C(F)(F)F)C(F)(F)F
Second: CCn1c(=O)c2c(nc(/C=C/c3cccc(OC)c3)n2C)n(CC)c1=O
The melting point of the first is lower: 132 to 134 °C for the first, 153 to 155 °C for the second.

Compared with `OCCCc1cnoc1-c1ccc(-c2ccccc2)cc1`, `COC(=O)NCCCn1c(-c2ccc(OC)cc2)csc1=Nc1ccccc1` is higher in melting point: 94 to 95 °C for the first, 106 to 108 °C for the second.

First: CNC(=O)C(Br)CCBr (centres undefined)
Second: CC(=O)Nc1ccc(Br)c(C)n1
The melting point of the first is lower: 48 to 49 °C for the first, 156 to 157 °C for the second.

Compared with `CC(C)(C)OC(=O)N1COC(=O)[C@@H]1Cc1ccccc1`, `COC(=O)C1Cc2c([nH]c3ccccc23)C(c2ccccc2Br)N1C(=O)CCl` (centres undefined) is higher in melting point: 84 to 86 °C for the first, 113 to 115 °C for the second.

First: CCc1cc(N(C=O)c2ccccc2)cc(CC)c1N=C=S
Second: Cc1ccc(NC(=S)NC(=O)c2ccccc2)c(Cl)c1
The melting point of the first is lower: 77 to 78 °C for the first, 143 °C for the second.

Compared with `O=c1oc(C(F)(F)F)ccc1-c1ccc(F)cc1F`, `COC1=C(Cc2ccc3ccccc3c2)C(=O)CC1` is lower in melting point: 98 to 100 °C for the first, 70 to 71 °C for the second.

First: Cc1nc(C)c(-c2ccnc(Nc3ccc(Cl)c(CO)c3)n2)s1
Second: COc1ccccc1CNc1ccc2cc(Nc3nccc(C(F)(F)F)n3)ccc2n1
The melting point of the first is higher: 245 to 246 °C for the first, 114 °C for the second.

Compared with `NC(=NO)c1ccc(NC(=O)CC(=O)N2CCC(OCC(=O)O)CC2)cc1`, `O=C(Cc1ccccc1C(=O)O)Nc1cccc(/C=C/c2nc(C3CCCC3)cs2)c1` is higher in melting point: 133 to 135 °C for the first, 209 to 210 °C for the second.

First: O=[N+]([O-])c1cccnc1Nc1ccc2c(c1)OCO2
Second: CC(C)c1nccn1-c1ccc([N+](=O)[O-])cc1SC(Cl)(Cl)Cl
The melting point of the first is higher: 146 to 148 °C for the first, 135 °C for the second.

First: O=C(CNC(=O)c1cccc(Cl)c1)c1ccsc1
Second: CNC(=O)c1ccc(=O)n(CCNC(=O)c2cccnc2)c1
The melting point of the first is lower: 137 to 140 °C for the first, 208 to 210 °C for the second.

Compared with `COCC1CN(c2ccc(C3CC3)cc2)C(=O)O1` (racemic), `O=c1ccc(N2CCC(CCCO)CC2)n[nH]1` is higher in melting point: 58 to 60 °C for the first, 174 °C for the second.

First: O=C(CCCl)N1c2ccccc2CCc2ccccc21
Second: CC(C)(C)c1ccc(C(O)CCCCN2CCC(=C3c4ccccc4CCc4ccccc43)CC2)cc1 (centres undefined)
The melting point of the first is lower: 107 to 108 °C for the first, 157 to 158 °C for the second.

`CC(Cc1c[nH]c2ccccc12)(NC(=O)OC1C2CC3CC(C2)CC1C3)C(=O)NC1(C(=O)O)CCCCC1` (centres undefined) and `Nc1nc2c(s1)CC(CNC(=O)[C@@H]1CCCN1C(=O)[C@@H](CC1CCCCC1)NS(=O)(=O)Cc1ccccc1)CC2` (some centres undefined) cannot be ordered by melting point: 203 to 208 °C for the first, 203 to 205 °C for the second.

First: NS(=O)(=O)c1cc(CCNC(=O)/C=C/c2cccs2)ccc1OCCOC(F)(F)F
Second: C#CC[C@H](c1nc2cc(Cl)ccc2c(=O)n1Nc1ccccc1)N(CCCN)C(=O)c1cc(F)cc(F)c1F
The melting point of the first is higher: 203 to 205 °C for the first, 168 to 170 °C for the second.

Compared with `Cc1ccc(C(Br)C(Br)C(=O)c2ccccc2)cc1` (centres undefined), `CNC(=O)c1cc(-c2ccc(OC)cc2)nn(Cc2ccc([N+](=O)[O-])cc2)c1=O` is higher in melting point: 84 °C for the first, 199 °C for the second.

Compared with `CCc1nc2c(N)nc3ccccc3c2n1CC1(O)CCOCC1`, `CN1c2cscc2C(=O)N(CCN2CCOCC2)c2ccccc21` is lower in melting point: > 250 °C for the first, 109 to 111 °C for the second.

First: Clc1cc(NCCc2c[nH]cn2)ccn1
Second: Clc1ccc2ncn3cnnc3c2c1
The melting point of the first is lower: 164 to 165 °C for the first, 179 to 182 °C for the second.

First: Cn1cc(C(=O)NCCC2CCN(S(=O)(=O)NC(=O)NC3CCCCC3)CC2)c(=O)n(C)c1=O
Second: O=C(CCCCN1CCCCC1)NNC(=O)N1Cc2ccccc2Oc2ccc(Cl)cc21
The melting point of the first is higher: 205 to 207 °C for the first, 126 to 128 °C for the second.

First: CC1(C)CC(CN2CCNC2=N[N+](=O)[O-])CO1 (centres undefined)
Second: N#CCN1CCc2ccc3c(c21)CCO3
The melting point of the first is lower: 119 to 120 °C for the first, 122 to 124 °C for the second.

Compared with `Nc1nccc(-c2ccc(OCC(O)CN3CCN(c4cccc(Cl)c4)CC3)cc2)n1` (centres undefined), `O=C1CCC(N2Cc3c(OCc4ccc(CN5CCN(c6ccccn6)CC5)cc4)cccc3C2=O)C(=O)N1` (centres undefined) is lower in melting point: 197 to 198 °C for the first, 165 to 167 °C for the second.

Compared with `CCN1C(=O)c2ccc(N)cc2C1=O`, `N#Cc1ccc2c(c1)Sc1ccc(N)cc1C=C2` is higher in melting point: 169 to 171 °C for the first, 181 to 183 °C for the second.

First: Cn1c(=O)cc(CCc2ccc(Cl)s2)c2cc(C(N)(c3ccc(Cl)cc3)c3cccnc3)ccc21 (centres undefined)
Second: COC1=C(C(=O)c2ccc(OC)cc2)C(c2ccc(C(C)(C)C)cc2)N(c2nnc(C)s2)C1=O (centres undefined)
The melting point of the first is lower: 100 °C for the first, 235 to 237 °C for the second.

First: Cn1cnc([N+](=O)[O-])c1Sc1nc(N)nc2c1ncn2C1C=CC(CO)C1 (centres undefined)
Second: Cc1cccc2nc3c(nc12)C=CCC3=O
The melting point of the first is higher: 207 to 208 °C for the first, 133 to 135 °C for the second.

First: O=C(C=Cc1ccc(-c2ccc(OCCCN3CCCCC3)cc2)cc1)N1CCCCC1
Second: Cc1c(C(=O)Nc2ccc(N3CCN(C4CCOCC4)CC3)c(C#N)c2)cnn1-c1ccc(Br)cc1
The melting point of the first is lower: 146 to 150 °C for the first, 288 °C for the second.

First: Cc1nc2c(OCc3c(Cl)ccc(N(C)C)c3Cl)cccn2c1Br
Second: CCOC(=O)C1=C(N)NC(N)=C(C(=O)OCC)C1c1cccc(C#N)c1
The melting point of the first is lower: 120 to 122 °C for the first, 176 °C for the second.

`COc1cccc(NC(=O)C23CC4CC(CC(C4)C2)C3)c1` and `CC(=O)Nc1ccc(-c2cc(C(C)(C)C)c(O)c(C(C)(C)C)c2)cc1` cannot be ordered by melting point: 172 to 174 °C for the first, 173 to 174 °C for the second.

Work on `CCc1cnc(SC(C)(C)C)c(C#N)c1` yielded a melting point of 63 to 66 °C.
